Data as given in US3944498A, “Germicidal detergent containing a thienyliodonium salt” (The Dow Chemical Company, priority 1973, dated 1976).

Columns and labels:
Swiss mice (Cox strain) = assay: Oral median lethal dose in Swiss mice (Cox strain); type: in vivo
Description: (§1) Five groups of mice, each consisting of 15 males and 15 females, were given ClPhThICl in an aqueous 0.5 percent METHOCEL hydroxypropyl methylcellulose (4000 cps.) suspension at a concentration of 300 mg/ml. The compound was administered as a single oral dose at 0.2 logarithmic dose intervals (708, 1120, 1780, 2820, 4450 mg/kg) and the following mortality experience was noted:
(§2) The percent of total mortalities occurring was 16.0, 66.6, 81.5, and 91.3 at 6, 24, 48 and 72 hours post-treatment, respectively. The last death occurred in a female (1120 mg/kg group) on day 14 of the study.

[1] = Oral median lethal dose in Swiss mice (Cox strain); type: in vivo; details: mouse, in vivo, po; for LD50 at 168 h: 7 days; for LD50 at 336 h: 14 days
Description: as §1, §2

S. typhosa = assay: Nutrient agar growth test, S. typhosa (Example 3); type: cell-based; details: 0.001 percent by weight, 2 days, 35°C
Description: The 4-chlorophenyl-2-thienyliodonium chloride, trifluoroacetate and trichloroacetate salts are dispersed in melted nutrient agar to produce culture media containing 0.001 percent by weight of one of the salt compounds. Such melted media are then poured into petri dishes and the solidified surface in each dish inoculated with a 24-hour broth culture, one of the organisms S. aureus and S. typhosa. In a check operation, petri dishes containing unmodified nutrient agar are each individually inoculated in the same manner with the named organisms. After two days' incubation at 35°C. the agar surface in each dish is examined for microbial growth. […] At the time of these observations the check dishes are found to support a heavy growth of the two named organisms.

[2] = male mice, 95% confidence limits 1353-2288 mg/kg

Clc1ccc([I+]c2cccs2)cc1.[Cl-] [4-Chlorophenyl-2-thienyliodonium chloride]
No. Dead (Swiss mice (Cox strain); 708 mg/kg oral, 7 Days, females): 1/15 | No. Dead (Swiss mice (Cox strain); 708 mg/kg oral, 7 Days, males): 0/15 | No. Dead (Swiss mice (Cox strain); 708 mg/kg oral, 14 Days, females): 2/15 | No. Dead (Swiss mice (Cox strain); 708 mg/kg oral, 14 Days, males): 1/15 | No. Dead (Swiss mice (Cox strain); 708 mg/kg oral, 24 Hours, females): 0/15 | No. Dead (Swiss mice (Cox strain); 708 mg/kg oral, 24 Hours, males): 0/15 | No. Dead (Swiss mice (Cox strain); 1120 mg/kg oral, 7 Days, females): 1/15 | No. Dead (Swiss mice (Cox strain); 1120 mg/kg oral, 7 Days, males): 1/15 | No. Dead (Swiss mice (Cox strain); 1120 mg/kg oral, 14 Days, females): 2/15 | No. Dead (Swiss mice (Cox strain); 1120 mg/kg oral, 14 Days, males): 1/15 | No. Dead (Swiss mice (Cox strain); 1120 mg/kg oral, 24 Hours, females): 0/15 | No. Dead (Swiss mice (Cox strain); 1120 mg/kg oral, 24 Hours, males): 0/15 | No. Dead (Swiss mice (Cox strain); 1780 mg/kg oral, 7 Days, females): 8/15 | No. Dead (Swiss mice (Cox strain); 1780 mg/kg oral, 7 Days, males): 8/15 | No. Dead (Swiss mice (Cox strain); 1780 mg/kg oral, 14 Days, females): 8/15 | No. Dead (Swiss mice (Cox strain); 1780 mg/kg oral, 14 Days, males): 9/15 | No. Dead (Swiss mice (Cox strain); 1780 mg/kg oral, 24 Hours, females): 4/15 | No. Dead (Swiss mice (Cox strain); 1780 mg/kg oral, 24 Hours, males): 3/15 | No. Dead (Swiss mice (Cox strain); 2820 mg/kg oral, 7 Days, females): 14/15 | No. Dead (Swiss mice (Cox strain); 2820 mg/kg oral, 7 Days, males): 14/15 | No. Dead (Swiss mice (Cox strain); 2820 mg/kg oral, 14 Days, females): 14/15 | No. Dead (Swiss mice (Cox strain); 2820 mg/kg oral, 14 Days, males): 14/15 | No. Dead (Swiss mice (Cox strain); 2820 mg/kg oral, 24 Hours, females): 8/15 | No. Dead (Swiss mice (Cox strain); 2820 mg/kg oral, 24 Hours, males): 11/15 | No. Dead (Swiss mice (Cox strain); 4450 mg/kg oral, 7 Days, females): 15/15 | No. Dead (Swiss mice (Cox strain); 4450 mg/kg oral, 7 Days, males): 15/15 | No. Dead (Swiss mice (Cox strain); 4450 mg/kg oral, 14 Days, females): 15/15 | No. Dead (Swiss mice (Cox strain); 4450 mg/kg oral, 14 Days, males): 15/15 | No. Dead (Swiss mice (Cox strain); 4450 mg/kg oral, 24 Hours, females): 13/15 | No. Dead (Swiss mice (Cox strain); 4450 mg/kg oral, 24 Hours, males): 15/15 | percent of total mortalities occurring (Swiss mice (Cox strain); 6 hours post-treatment): 16.0% | percent of total mortalities occurring (Swiss mice (Cox strain); 24 hours post-treatment): 66.6% | percent of total mortalities occurring (Swiss mice (Cox strain); 48 hours post-treatment): 81.5% | percent of total mortalities occurring (Swiss mice (Cox strain); 72 hours post-treatment): 91.3% | time of last death (Swiss mice (Cox strain); female, 1120 mg/kg group): 14 days | LD50 at 24 h ([1]; female mice, 95% confidence limits 2300-3591 mg/kg): 2700 mg/kg | LD50 at 24 h ([1]; male mice, 95% confidence limits 1916-2760 mg/kg): 2300 mg/kg | LD50 at 168 h ([1]; female mice, 95% confidence limits 1172-2455 mg/kg): 1700 mg/kg | LD50 at 168 h [1, 2]: 1760 mg/kg | LD50 at 336 h ([1]; female mice, 95% confidence limits 1264-1975 mg/kg): 1580 mg/kg | LD50 at 336 h [1, 2]: 1760 mg/kg | microbial growth on agar surface (S. typhosa): free of microbial growth
